In patent publication US20030113901A1, “Cell production” (priority 2000, published 2003):

Key:
[1] = system: in vitro-derived neurectoderm (EBM7); assay: Immunohistochemistry, TH: dopaminergic neuron formation from in vitro-derived neurectoderm (EBM7); format: cell-based; settings: EBM7s, 10 ng/ml NGF days 7-10, 200 μM dopamine days 10-14 where present, day 14
Experimental: FIG. 2: The culture of in vitro-derived neurectoderm in the presence of NGF and dopamine increases dopaminergic neuron formation. EBM^7s were seeded for 3 days in 50% DMEM/F12, 10 ng/ml FGF2, 0.1% ITSS, 1% FCS, and 10 ng/ml NGF, and for an additional 4 days in DMEM/F12, 0.1% ITSS, 200 μM ascorbic acid, with or without 200 μM dopamine. The resulting EBMs were analysed by immunohistochemistry using an anti-TH antibody. Positive staining for TH (dark regions) indicated dopaminergic neurons. A, EBM^7s cultured in the absence of NGF and dopamine; B, EBM^7s cultured in the presence of NGF; C, EBM^7s cultured in the presence of NGF and dopamine.
(§1) EBs were grown in the presence of the conditioned medium MEDII for 7 days (EBM^7) as previously described in International Patent Application PCT/AU99/00265 to applicants, the entire disclosure of which is incorporated herein by reference.
ES cells were seeded at a density of 1×10^5 cells/cm^2 In suspension culture in bacterial petri dishes in DMEM containing 50% MEDII. DMEM is defined as Dulbecco's Modified Eagles Medium (Gibco BRL), pH 7.4, containing high glucose and supplemented with 10% foetal calf serum (FCS; Commonwealth Serum Laboratories), 40 μg/ml gentamycin, 1 mM L-glutamine, 0.1 mM β-mercaptoethanol (β-ME). […]
(§2) Antibody staining for NF200 and tyrosine hydroxylase (TH) was detected by alkaline phoaphatase activity. […]

[2] = system: in vitro-derived neurectoderm (EBM7); assay: Immunohistochemistry, NF200: neuron formation from in vitro-derived neurectoderm (EBM7); format: cell-based; settings: EBM7s grown in the presence of 10 ng/ml NGF vs absence; anti-NF200 antibody, day 14
Experimental: FIG. 1: The culture of in vitro-derived neurectoderm in the presence of NGF increases neuron formation. EBM^7s were seeded for 3 days in 50% DMEM/F12, 10 ng/ml FGF2, 0.1% ITSS, 1% FCS, in the presence or absence of 10 ng/ml NGF, and for an additional 4 days in 50% DMEM/F12, 0.1% ITSS. The resulting EBMs were analysed by immunohistochemistry using an anti-NF200 antibody. Positive staining for NF200 (dark regions) indicated neurons. A, EBM^7s cultured in the absence of NGF; B, EBM^7s cultured in the presence of NGF.
as §1
ES cells were seeded at a density of 1×10^5 cells/cm^2 In suspension culture in bacterial petri dishes in DMEM containing 50% MEDII. DMEM is defined as Dulbecco's Modified Eagles Medium (Gibco BRL), pH 7.4, containing high glucose and supplemented with 10% foetal calf serum (FCS; Commonwealth Serum Laboratories), 40 μg/ml gentamycin, 1 mM L-glutamine, 0.1 mM β-mercaptoethanol (β-ME). The resulting cell aggregates (EBMs) were split 1:2 after 2 days and seeded into fresh DMEM containing 50% MEDII. […]
as §2

In the case of `NCCc1ccc(O)c(O)c1` [dopamine, reference compound], the “TH positive cells (anti-TH antibody staining)” value [1] was “significant increase”.
In the case of “NGF: growth factor from the neural growth factor (NGF) family, used at 10 ng/ml”, the “proportion of cells staining positive for NF200” value [2] was “significantly increased” and the “TH positive cells (anti-TH antibody staining)” value [1] was “only a small proportion”.
